Assay results taken from paper PMC9457600, “Synthesis, Leishmanicidal, Trypanocidal, Antiproliferative Assay and Apoptotic Induction of (2-Phenoxypyridin-3-yl)naphthalene-1(2H)-one Derivatives” (Molecules, 2022).

What was measured:
[1] = tested on: promastigotes of Leishmania (V.) braziliensis strain MHOM/CO/87/UA301; assay: MTT viability of L. braziliensis promastigotes; type: cell-based;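 also: promastigote proliferation in 96-well plates, MTT reduction read at 570 nm, EC50 derived from growth curves, cytotoxicity CC50 likewise by MTT in BMDM and VERO cells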
Method: Promastigotes of Leishmania (V.) braziliensis strain MHOM/CO/87/UA301 were isolated from footpad lesions in Balb/C mice previously infected. In the process of maintenance and differentiation of the parasites, the LTI medium (tryptose 15 g/L, yeast extract 5 g/L, liver extract 2 g/L, hemin-NaOH 0.02 g/L, glucose 4 g/L, NaCl 9 g/L, KCl 0.4 g/L Na2HPO4, 7.5 g/L at pH 7.4) supplemented with 10% fetal calf serum and maintained at 29 °C was used.
Briefly, 96-well plates were used, where 2 × 10^6 parasites/mL were seeded. A concentration of 50 μM was used for each compound and an incubation time of 96 h at 29 °C. 3-(4,5-dimethylthiazol-2-yl)-2,5-diphenyl tetrazolium bromide (MTT) 1 μg/mL was added and incubated in darkness for 4 h, acidic isopropanol (4N) was added and the plate was read at 570 nm in a spectrophotometer Synergy HT (Biotek). Miltefosine was used as a reference drug. The EC50 calculation of the selected compound was performed using growth curves. Direct counting was used to monitor the proliferation of parasites, three independent experiments were performed for each concentration of the compounds evaluated. The in vitro evaluations of compounds toxicity by MTT in VERO and BMDM cells follow a methodology described above with some modifications [60].

A549 = assay: MTS antiproliferative assay A549; type: cell-based, human; details: 72 h of incubation
Excerpt: (§1) The cell lines used were acquired from the American Type Culture Collection (ATCC), CCRF-CEM (T lymphoblastic leukemia), K562 ([…]), U2OS (osteosarcoma), HCT116 (colon carcinoma), A549 (lung adenocarcinoma) and HCT116p53−/− (HCT116 cell line mutated in p53) Horizon Discovery Ltd., (Waterbeach, Cambridge, United Kingdom).
(§2) In our laboratory, IMTM, we generated the daunorubicin-resistant subline of CCRF-CEM cells (CEM-DNR bulk) and paclitaxel-resistant subline K562-TAX, as described previously. […] Both ABC transporters are involved in drug resistance. As a control, human fibroblasts MRC-5 and BJ cell lines were used. […] Adherent cells were passaged using PBS containing 0.25% trypsin plus 0.01% EDTA (ethylenediamine tetraacetic acid) every 2–3 days.
(§3) The antiproliferative activity of compounds was determined using a standard 3-(4,5-dimethylthiazol-2yl)-5-(3-carboxymethoxyphenyl)-2-(4-sulfophenyl)-2H-tetrazolium (MTS) reduction assay on a robotic high throughput screening platform (HighResBio, Boston, MA, USA) following treatment of cells for 3–7 days. The IC50 values were calculated from the appropriate dose–response curves with Dotmatics software (San Diego, CA, USA).

HCT-116 = assay: MTS antiproliferative assay HCT116; type: cell-based; details: Homo sapiens, 72 h of incubation
Excerpt: as §1, §2, §3

[2] = tested on: epimastigotes of Trypanosoma cruzi strain MHOM/VE/92/YBM; assay: MTT viability of T. cruzi epimastigotes; type: cell-based; details: Trypanosoma cruzi, 72 h, epimastigotes
U2OS = assay: MTS antiproliferative assay U2OS; type: cell-based; details: Homo sapiens, 72 h of incubation
Excerpt: as §1, §2, §3

K562 = assay: MTS antiproliferative assay K562; type: cell-based, human; details: for IC50: 72 h of incubation; for times higher cytotoxicity against K562 than K562-TAX: ratio of IC50 values
Excerpt: as §1, §2, §3

K562-TAX = assay: MTS antiproliferative assay K562-TAX; type: cell-based, human; details: 72 h of incubation, paclitaxel-resistant
Excerpt: as §1, §2, §3

BJ = assay: MTS assay on non-malignant BJ; type: cell-based; details: noncancerous human cell line
Method: as §2, §3

MRC-5 = assay: MTS assay on non-malignant MRC-5; type: cell-based; details: MRC5; noncancerous human cell line
Method: as §2, §3

HCT116p53−/− = assay: MTS antiproliferative assay HCT116p53-/-; type: cell-based; details: Homo sapiens; 72 h of incubation
Excerpt: as §1, §2, §3

CCRF-CEM = assay: MTS antiproliferative assay CCRF-CEM; type: cell-based; details: Homo sapiens, 72 h of incubation
Excerpt: as §1, §2, §3

CEM-DNR = assay: MTS antiproliferative assay CEM-DNR; type: cell-based; details: Homo sapiens, 72 h of incubation, daunorubicin-resistant
Excerpt: as §1, §2, §3

A549 cell line = assay: Annexin V-FITC/PI flow cytometry apoptosis assay A549; type: cell-based, human; details: 24 h
Method: (§4) Cell death was assessed after 24 h incubation with compounds 18 and 22. Apoptosis was analyzed by flow cytometry using annexin V-FITC and propidium iodide (PI). Early apoptosis was defined by annexin V-FITC expression and, necrosis by PI expression, late apoptosis by coexpression of annexin V/PI. Doxorubicin and quercetin were used as positive controls. The results of a typical flow cytometry analysis of both compounds are illustrated in Figure 2 and Figure 3. An increase in early apoptosis and late apoptosis was observed; necrosis was less predominant. The results are summarized in Tables S1 and S2 (Supplementary Materials). The expression of annexin V was different depending on the compound used. K562, A549 cell lines were treated as described by the manufacturer (Santa Cruz Biotechnology), washed, and resuspended in annexin V binding buffer (0.01 M HEPES, 0.14 M NaCl, and 2.5 mM CaCl2) with the subsequent incubation of annexinV-FITC and then PI. An Epics XL cytometer (Beckman Coulter, Indianapolis, IN, USA) was used for the analysis. Untreated cells were the negative controls, and doxorubicin (Dox) (1 μM), and quercetin (QC) (50 μM) were the positive controls. Early apoptosis refers to annexin V expression, late apoptosis, the coexpression of annexin V and PI, and necrosis the sole expression of PI. […] The experiments were performed as described before. To avoid the unwanted effects of DMSO, the concentrations of the compounds were never higher than 100 μM.

K562 cell line = assay: Annexin V-FITC/PI flow cytometry apoptosis assay K562; type: cell-based, human; details: 24 h
Method: as §4

SMILES | IC50 (A549; Homo sapiens, A549, 72 h) [µM] | IC50 (HCT-116) [µM] | EC50 [2] [µM] | IC50 (U2OS) [µM] | IC50 (K562; Homo sapiens, K562, 72 h) [µM] | IC50 (K562-TAX; Homo sapiens, K562-Tax, 72 h) [µM] | IC50 (HCT116p53−/−) [µM] | IC50 (CCRF-CEM) [µM] | melting point [°C] | EC50 ([1]; 72 h, promastigotes) [µM] | IC50 (BJ) [µM] | IC50 (MRC-5) [µM] | IC50 (CEM-DNR) [µM] | other results
COc1ccc2c(c1)CC/C(=C\c1cccnc1Oc1ccc(F)cc1)C2=O [Compound 14, (E)-2-{[2-(4-Fluorophenoxy)pyridin-3-yl]methylene}-3,4-dihydro-6-methoxynaphthalen-1(2H)-one] | 43.6 ± 4.12 | > 50 | > 100 | > 50 | 5.74 ± 3.2 | > 39.2 | > 50 | 20.1 ± 2.43 | 152 to 154 | > 100 | > 50 | > 50 | 41.3 ± 5.67 | times higher cytotoxicity against K562 than K562-TAX (K562): 6.8 times; IC50 (K562-TAX): 39.2 ± 9.37 µM
O=C1/C(=C/c2cccnc2Oc2ccc(Br)cc2)CCc2ccccc21 [Compound 16, (E)-2-{[2-(4-Bromophenoxy)pyridin-3-yl]methylene}-3,4-dihydronaphthalen-1(2H)-one] | 39.7 ± 1.89 | 29.9 ± 4.59 | > 100 | 38 ± 4.47 | 23.9 ± 2.28 | 25.6 ± 5.37 | 31.5 ± 62.7 | 8.7 ± 2.19 | 138 to 140 | > 100 | > 50 | > 50 | 34.3 ± 3.61 | 
COc1cccc2c1CC/C(=C\c1cccnc1Oc1ccc(Br)cc1)C2=O [Compound 17, (E)-2-{[2-(4-Bromophenoxy)pyridin-3-yl]methylene}-3,4-dihydro-5-methoxynaphthalen-1(2H)-one] | > 50 | > 50 | > 100 | > 50 | 32 ± 3.72 | 31.4 ± 6.59 | > 50 | 12.9 ± 2.07 | 158 to 160 | > 100 | > 50 | > 50 | 31.7 ± 5.86 | 
COc1ccc2c(c1)C(=O)/C(=C/c1cccnc1Oc1ccc(Br)cc1)CC2 [Compound 19, (E)-2-{[2-(4-Bromophenoxy)pyridin-3-yl]methylene}-3,4-dihydro-7-methoxynaphthalen-1(2H)-one] | > 50 | > 50 | > 100 | > 50 | 43 ± 5.1 | 4.17 ± 2.93 | > 50 | 12.9 ± 2.43 | 144 to 146 | ≤ 60 | > 50 | > 50 | 20 ± 3.99 | EC50 ([1]; promastigotes, 72 h): 44.6 ± 1.15 µM
COc1cccc2c1C(=O)c1c(O)c3c(c(O)c1C2=O)C[C@@](O)(C(=O)CO)C[C@@H]3O[C@H]1C[C@H](N)[C@H](O)[C@H](C)O1 [Dox, doxorubicin, reference compound] |  |  |  |  |  |  |  |  |  |  |  |  |  | AV+/IP+ (late apoptosis) (A549 cell line; A549, 1 µM): 33.50%; AV+/IP- (early apoptosis) (A549 cell line; A549, 1 µM): 8.33%; AV-/IP+ (necrosis) (A549 cell line; A549, 1 µM): 29.30%; AV+/IP+ (late apoptosis) (K562 cell line; K562, 1 µM): 29.80%; AV+/IP- (early apoptosis) (K562 cell line; K562, 1 µM): 29.40%; AV-/IP+ (necrosis) (K562 cell line; K562, 1 µM): 19.20%
O=c1c(O)c(-c2ccc(O)c(O)c2)oc2cc(O)cc(O)c12 [QC, quercetin, reference compound] |  |  |  |  |  |  |  |  |  |  |  |  |  | AV+/IP+ (late apoptosis) (A549 cell line; A549, 50 µM): 21.70%; AV+/IP- (early apoptosis) (A549 cell line; A549, 50 µM): 26.10%; AV-/IP+ (necrosis) (A549 cell line; A549, 50 µM): 5.60%; AV+/IP+ (late apoptosis) (K562 cell line; K562, 50 µM): 6.25%; AV+/IP- (early apoptosis) (K562 cell line; K562, 50 µM): 34.30%; AV-/IP+ (necrosis) (K562 cell line; K562, 50 µM): 1.57%

The next lines start with results.

IC50 (A549; Homo sapiens, A549, 72 h) [µM] | IC50 (HCT-116) [µM] | EC50 [2] [µM] | IC50 (U2OS) [µM] | IC50 (K562; Homo sapiens, K562, 72 h) [µM] | IC50 (K562-TAX; Homo sapiens, K562-Tax, 72 h) [µM] | IC50 (HCT116p53−/−) [µM] | IC50 (CCRF-CEM) [µM] | melting point [°C] | SMILES | EC50 ([1]; 72 h, promastigotes) [µM] | IC50 (BJ) [µM] | IC50 (MRC-5) [µM] | IC50 (CEM-DNR) [µM] | other results
28.1 ± 4.86 | 26.4 ± 1.58 | > 100 | 23.2 ± 1.9 | 22.4 ± 2.3 | 32.9 ± 3.19 | 26.9 ± 3.49 | 6.7 ± 0.98 |  | O=C1/C(=C/c2cccnc2Oc2ccc(F)cc2)CCc2ccccc21 [Compound 12, (E)-2-{[2-(4-Fluorophenoxy)pyridin-3-yl]methylene}-3,4-dihydronaphthalen-1(2H)-one] | > 100 | > 50 | > 50 | 35.6 ± 4.42 | 
28.4 ± 2.14 | 27.2 ± 2.44 | > 100 | 21 ± 2.21 | 23.4 ± 2.31 | 39.3 ± 5.4 | 23.5 ± 1.5 | 6.07 ± 0.59 | 154 to 156 | COc1cccc2c1CC/C(=C\c1cccnc1Oc1ccc(F)cc1)C2=O [Compound 13, (E)-2-{[2-(4-Fluorophenoxy)pyridin-3-yl]methylene}-3,4-dihydro-5-methoxynaphthalen-1(2H)-one] | > 100 | > 50 | > 50 | 37.3 ± 3.13 | 
29.1 ± 5 | 30.5 ± 2.34 | > 100 | 26.3 ± 4.61 | 27.7 ± 2.49 | 19.7 ± 3.78 | 23.9 ± 2.5 | 9.13 ± 1.38 | 150 to 152 | COc1ccc2c(c1)C(=O)/C(=C/c1cccnc1Oc1ccc(F)cc1)CC2 [Compound 15, (E)-2-{[2-(4-Fluorophenoxy)pyridin-3-yl]methylene}-3,4-dihydro-7-methoxynaphthalen-1(2H)-one] | > 100 | > 50 | > 50 | 23.1 ± 4.38 | 
9.64 to 9.74 | > 50 | > 100 | 7.27 ± 0.68 | 3.91 to 4.33 | 17.6 ± 7.09 | > 50 | 5.97 ± 0.67 |  | COc1ccc2c(c1)CC/C(=C\c1cccnc1Oc1ccc(Br)cc1)C2=O [Compound 18, (E)-2-{[2-(4-Bromophenoxy)pyridin-3-yl]methylene}-3,4-dihydro-6-methoxynaphthalen-1(2H)-one] | > 100 | > 50 | > 50 | 25.7 ± 5.71 | IC50 (A549): 9.64 ± 1.71 µM; IC50 (K562): 4.33 ± 0.19 µM; times higher cytotoxicity against K562 than K562-TAX (K562): 4.1 times; AV+/IP+ (late apoptosis) (A549 cell line; A549, 10 µM): 3.28%; AV+/IP- (early apoptosis) (A549 cell line; A549, 10 µM): 11.10%; AV-/IP+ (necrosis) (A549 cell line; A549, 10 µM): 3.06%; AV+/IP+ (late apoptosis) (A549 cell line; A549, 25 µM): 21.10%; AV+/IP- (early apoptosis) (A549 cell line; A549, 25 µM): 40.10%; AV-/IP+ (necrosis) (A549 cell line; A549, 25 µM): 3.12%; AV+/IP+ (late apoptosis) (K562 cell line; K562, 5 µM): 2.84%; AV+/IP- (early apoptosis) (K562 cell line; K562, 5 µM): 22.70%; AV-/IP+ (necrosis) (K562 cell line; K562, 5 µM): 0.89%; AV+/IP+ (late apoptosis) (K562 cell line; K562, 10 µM): 89.50%; AV+/IP- (early apoptosis) (K562 cell line; K562, 10 µM): 8.69%; AV-/IP+ (necrosis) (K562 cell line; K562, 10 µM): 1.12%; annexin V-FITC expression (K562 cell line; K562, 10 µM): higher than 50%
